Reference: patent US20110190135A1, “SYNERGISTIC HERBICIDAL COMPOSITION CONTAINING PENOXSULAM AND BUTACHLOR” (DOW AGROSCIENCES LLC, priority 2010, published 2011)

Assays:
[1] = test system: ISCRU - winklegrass; assay: Weed control in transplanted rice, Field trial #3; type: in vivo, Ischaemum rugosum; conditions: 42 days after application
Protocol: (§1) Field trials were conducted in rice using standard herbicide small plot research methodology. Plot size was 2 m^2 using 1.6 m diameter rings placed into the paddy soil with capability for flooding with water to represent flooded rice culture. There were 3 replicates per treatment. Rice was Japonica type that was sown in rice nursery boxes as per normal cultural practices, and then transplanted 30 days after sowing into flooded rings. The rice crop was grown using normal cultural practices for fertilization, seeding, watering, flooding and maintenance to ensure good growth of the crop and the weeds under seeded rice conditions in Taiwan. Ring plot water depth was maintained at 3 to 7 cm depth after transplanting. Just prior to treatment application, plot water was drained to maintain saturated soil in ring plot. Treatments were applied by hand and water was re-induced to 3 to 7 cm depth 24 hours after application. All treatments in the field trials were applied by mixing the treatments with soil just prior to application by hand into the ring plots at 5 to 7 days after transplanting. Commercially available products of penoxsulam and butachlor were mixed in water and sprayed onto 45 grams of soil, which is equivalent to the area treated at an application rate of 225 kg soil/ha. […]

[2] = test system: ECHCG - barnyard grass; assay: Weed control in transplanted rice, Field trial #1; type: in vivo, Ehinochloa crus-galli; conditions: 42 days after application
Protocol: as §1

[3] = test system: MOOVA - pickerel weed; assay: Weed control in transplanted rice, Field trial #2; type: in vivo, Monochoria vaginalis; conditions: 28 days after application
Protocol: as §1

[4] = test system: ECHCG - barnyard grass; assay: Weed control in transplanted rice, Field trial #2; type: in vivo, Ehinochloa crus-galli; conditions: 28 days after application
Protocol: Field trials were conducted in rice using standard herbicide small plot research methodology. Plot size was 2 m^2 using 1.6 m diameter rings placed into the paddy soil with capability for flooding with water to represent flooded rice culture. There were 3 replicates per treatment. Rice was Japonica type that was sown in rice nursery boxes as per normal cultural practices, and then transplanted 30 days after sowing into flooded rings. The rice crop was grown using normal cultural practices for fertilization, seeding, watering, flooding and maintenance to ensure good growth of the crop and the weeds under seeded rice conditions in Taiwan. Ring plot water depth was maintained at 3 to 7 cm depth after transplanting. Just prior to treatment application, plot water was drained to maintain saturated soil in ring plot. Treatments were applied by hand and water was re-induced to 3 to 7 cm depth 24 hours after application. All treatments in the field trials were applied by mixing the treatments with soil just prior to application by hand into the ring plots at 5 to 7 days after transplanting. Commercially available products of penoxsulam and butachlor were mixed in water and sprayed onto 45 grams of soil, which is equivalent to the area treated at an application rate of 225 kg soil/ha. For each 2 m^2 plot, 45 g soil was mixed with the appropriate formulated product amounts to treat 2 m^2 to achieve the desired application rates based on unit area of application (hectare). Treatments were rated as compared to the untreated control plots. Visual weed control was rated on a scale of 0 to 100 percent, where 0 corresponds to no injury and 100 corresponds to complete kill. The treated plots and control plots were rated blind at various intervals after application. Ratings were based of Percent (%) Visual weed control, where 0 corresponds to no injury and 100 corresponds to complete kill. Colby's equation was used to determine the herbicidal effects expected from the mixtures (Colby, S. R. Calculation of the synergistic and antagonistic response of herbicide combinations. Weeds 1967 15, 20-22). The following equation was used to calculate the expected activity of mixtures containing two active ingredients, A and B: Expected=A+B−(A×B/100) A=observed efficacy of active ingredient A at the same concentration as used in the mixture; B=observed efficacy of active ingredient B at the same concentration as used in the mixture.

Structure (SMILES)	ISCRU Obs - percent control observed ([1]; Butachlor 300 grams ai/ha) [%]	ECHCG Obs - percent control observed ([2]; Butachlor 600 grams ai/ha) [%]	MOOVA Obs - percent control observed ([3]; Butachlor 300 grams ai/ha) [%]	ECHCG Obs - percent control observed ([4]; Butachlor 300 grams ai/ha) [%]	ISCRU Obs - percent control observed ([1]; Penoxsulam 13 grams ai/ha) [%]	ECHCG Obs - percent control observed ([2]; Penoxsulam 30 grams ai/ha) [%]	MOOVA Obs - percent control observed ([3]; Penoxsulam 3.8 grams ai/ha) [%]	ECHCG Obs - percent control observed ([4]; Penoxsulam 3.8 grams ai/ha) [%]	ECHCG Obs - percent control observed ([4]; Penoxsulam 7.5 grams ai/ha) [%]	ECHCG Obs - percent control observed ([4]; Penoxsulam 15 grams ai/ha) [%]
CCCCOCN(C(=O)CCl)c1c(CC)cccc1CC [Butachlor, N-butoxymethyl-2-chloro-2′,6′-diethylacetanilide]	23	0	26	13						
COc1cnc(OC)n2nc(NS(=O)(=O)c3c(OCC(F)F)cccc3C(F)(F)F)nc12 [Penoxsulam]					1	27	75	0	15	88
